PubChem BioAssay AID1963961 (Molecular Pharmacology Branch, DTP, NCI, 2024)

Tested on: K98450-129-R-PDC multicell spheroids, viability
Experiment: Anticancer human tumor K98450-129-R-PDC patient-derived colon adenocarcinoma cell line growth inhibition [PI3K]
Settings: for IC50: curve of first compound; for viability, T/C: stronger effect = lower value
How it was run: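 Complex 3D spheroids (cancer cells + endothelial HUVEC + mesenchymal stem cells); drug pairs of targeted agent x inavolisib/alpelisib/duvelisib/copanlisib; half-log series from ~Cmax, max 10 microM if Cmax unknown; endpoint viability.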

[1] = second compound 0.0316 µM, first compound 0.0316 µM
[2] = second compound 0.0316 µM, first compound 0.1 µM
[3] = second compound 0.0316 µM, first compound 0.316 µM
[4] = second compound 0.0316 µM, first compound 1 µM
[5] = second compound 0.0316 µM, first compound 3.16 µM
[6] = second compound 0.0316 µM, first compound 10 µM
[7] = second compound 0.1 µM, first compound 0.0316 µM
[8] = second compound 0.1 µM, first compound 0.1 µM
[9] = second compound 0.1 µM, first compound 0.316 µM
[10] = second compound 0.1 µM, first compound 1 µM
[11] = second compound 0.1 µM, first compound 3.16 µM
[12] = second compound 0.1 µM, first compound 10 µM
[13] = second compound 0.316 µM, first compound 0.0316 µM
[14] = second compound 0.316 µM, first compound 0.1 µM
[15] = second compound 0.316 µM, first compound 0.316 µM
[16] = second compound 0.316 µM, first compound 1 µM
[17] = second compound 0.316 µM, first compound 3.16 µM
[18] = second compound 0.316 µM, first compound 10 µM
[19] = second compound 1 µM, first compound 0.0316 µM
[20] = second compound 1 µM, first compound 0.1 µM
[21] = second compound 1 µM, first compound 0.316 µM
[22] = second compound 1 µM, first compound 1 µM
[23] = second compound 1 µM, first compound 3.16 µM
[24] = second compound 1 µM, first compound 10 µM
[25] = second compound 3.16 µM, first compound 0.0316 µM
[26] = second compound 3.16 µM, first compound 0.1 µM
[27] = second compound 3.16 µM, first compound 0.316 µM
[28] = second compound 3.16 µM, first compound 1 µM
[29] = second compound 3.16 µM, first compound 3.16 µM
[30] = second compound 3.16 µM, first compound 10 µM
[31] = second compound 10 µM, first compound 0.0316 µM
[32] = second compound 10 µM, first compound 0.1 µM
[33] = second compound 10 µM, first compound 0.316 µM
[34] = second compound 10 µM, first compound 1 µM
[35] = second compound 10 µM, first compound 3.16 µM
[36] = second compound 10 µM, first compound 10 µM
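Note: spheroids exposed to agents for seven days before read-out.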

`C=CC(=O)N1CCN(c2nc(=O)n(-c3c(C)ccnc3C(C)C)c3nc(-c4c(O)cccc4F)c(F)cc23)C(C)C1` (stereo unspecified) + CC(Nc1ncnc2nc[nH]c12)c1cc2cccc(Cl)c2c(=O)n1-c1ccccc1 was tested, and the IC50 (second compound 0.0316 µM) was 5.34 µM, the IC50 (second compound 0.1 µM) was 3.4 µM and the IC50 (second compound 0.316 µM) was 5.92 µM. For the same molecule, the IC50 (second compound 1 µM) was 3.54 µM, the IC50 (second compound 3.16 µM) was 1.84 µM and the IC50 (second compound 10 µM) was 2.02 µM. For the same molecule, the viability, T/C [1] was 94.3%, the viability, T/C [2] was 96.5% and the viability, T/C [3] was 79.7%. For the same molecule, the viability, T/C [4] was 74.1%, the viability, T/C [5] was 53.3% and the viability, T/C [6] was 44.4%. For the same molecule, the viability, T/C [7] was 106%, the viability, T/C [8] was 99.7% and the viability, T/C [9] was 89.2%. For the same molecule, the viability, T/C [10] was 67.9%, the viability, T/C [11] was 52.4% and the viability, T/C [12] was 36.5%. The viability, T/C [13] was 111%, the viability, T/C [14] was 105% and the viability, T/C [15] was 92.1%. For the same molecule, the viability, T/C [16] was 68.5%, the viability, T/C [17] was 54% and the viability, T/C [18] was 46.9%. For the same molecule, the viability, T/C [19] was 113%, the viability, T/C [20] was 104% and the viability, T/C [21] was 89.4%. It also gave a viability, T/C [22] of 73.9%, a viability, T/C [23] of 46.9% and a viability, T/C [24] of 42%. It also gave a viability, T/C [25] of 93.5%, a viability, T/C [26] of 98.1% and a viability, T/C [27] of 96.9%. For the same molecule, the viability, T/C [28] was 60.5%, the viability, T/C [29] was 44.5% and the viability, T/C [30] was 36.6%. The viability, T/C [31] was 81.2%, the viability, T/C [32] was 78.4% and the viability, T/C [33] was 84%. It also gave a viability, T/C [34] of 67.1%, a viability, T/C [35] of 39.4% and a viability, T/C [36] of 32.8%.
In the case of `CCCS(=O)(=O)Nc1ccc(F)c(C(=O)c2c[nH]c3ncc(-c4ccc(Cl)cc4)cc23)c1F` + CC(Nc1ncnc2nc[nH]c12)c1cc2cccc(Cl)c2c(=O)n1-c1ccccc1, the IC50 (second compound 0.0316 µM) is reported as 5.17 µM, the IC50 (second compound 0.1 µM) is reported as 6.03 µM and the IC50 (second compound 0.316 µM) is reported as 5.29 µM. The IC50 (second compound 1 µM) was 5.51 µM, the IC50 (second compound 3.16 µM) was 5.87 µM and the IC50 (second compound 10 µM) was 5.53 µM. For the same molecule, the viability, T/C [1] was 118%, the viability, T/C [2] was 97.9% and the viability, T/C [3] was 106%. The viability, T/C [4] was 113%, the viability, T/C [5] was 85.5% and the viability, T/C [6] was 2.37%. For the same molecule, the viability, T/C [7] was 127%, the viability, T/C [8] was 94.6% and the viability, T/C [9] was 121%. The viability, T/C [10] was 112%, the viability, T/C [11] was 109% and the viability, T/C [12] was 3.82%. For the same molecule, the viability, T/C [13] was 96.8%, the viability, T/C [14] was 97.2% and the viability, T/C [15] was 101%. For the same molecule, the viability, T/C [16] was 111%, the viability, T/C [17] was 89% and the viability, T/C [18] was 1.77%. For the same molecule, the viability, T/C [19] was 97%, the viability, T/C [20] was 104% and the viability, T/C [21] was 101%. It also gave a viability, T/C [22] of 120%, a viability, T/C [23] of 93.7% and a viability, T/C [24] of 2.88%. It also gave a viability, T/C [25] of 97.1%, a viability, T/C [26] of 102% and a viability, T/C [27] of 95.3%. It also gave a viability, T/C [28] of 112%, a viability, T/C [29] of 114% and a viability, T/C [30] of 3.24%. It also gave a viability, T/C [31] of 96.2%, a viability, T/C [32] of 102% and a viability, T/C [33] of 105%. The viability, T/C [34] was 102%, the viability, T/C [35] was 94.2% and the viability, T/C [36] was 3.07%.
In the case of `CNC(=O)c1ccc(N2C(=S)N(c3ccc(C#N)c(C(F)(F)F)c3)C(=O)C2(C)C)cc1F` + CC(Nc1ccc2c(c1)OCCn1cc(N3C(=O)OCC3C(F)F)nc1-2)C(N)=O, the IC50 (second compound 0.00316 µM) is reported as > 10 µM, the IC50 (second compound 0.01 µM) is reported as > 10 µM and the IC50 (second compound 0.0316 µM) is reported as > 10 µM. The IC50 (second compound 0.1 µM) was > 10 µM, the IC50 (second compound 0.316 µM) was > 10 µM and the IC50 (second compound 1 µM) was > 10 µM. The viability, T/C (second compound 0.00316 µM, first compound 0.0316 µM) was 108%, the viability, T/C (second compound 0.00316 µM, first compound 0.1 µM) was 102% and the viability, T/C (second compound 0.00316 µM, first compound 0.316 µM) was 107%. It also gave a viability, T/C (second compound 0.00316 µM, first compound 1 µM) of 107%, a viability, T/C (second compound 0.00316 µM, first compound 3.16 µM) of 110% and a viability, T/C (second compound 0.00316 µM, first compound 10 µM) of 120%. It also gave a viability, T/C (second compound 0.01 µM, first compound 0.0316 µM) of 115%, a viability, T/C (second compound 0.01 µM, first compound 0.1 µM) of 100% and a viability, T/C (second compound 0.01 µM, first compound 0.316 µM) of 107%. It also gave a viability, T/C (second compound 0.01 µM, first compound 1 µM) of 101%, a viability, T/C (second compound 0.01 µM, first compound 3.16 µM) of 108% and a viability, T/C (second compound 0.01 µM, first compound 10 µM) of 117%. For the same molecule, the viability, T/C [1] was 106%, the viability, T/C [2] was 101% and the viability, T/C [3] was 94.5%. It also gave a viability, T/C [4] of 103%, a viability, T/C [5] of 112% and a viability, T/C [6] of 112%. For the same molecule, the viability, T/C [7] was 94.1%, the viability, T/C [8] was 93.9% and the viability, T/C [9] was 103%. For the same molecule, the viability, T/C [10] was 98.2%, the viability, T/C [11] was 105% and the viability, T/C [12] was 110%. It also gave a viability, T/C [13] of 94.7%, a viability, T/C [14] of 96.8% and a viability, T/C [15] of 99.6%. The viability, T/C [16] was 96.8%, the viability, T/C [17] was 102% and the viability, T/C [18] was 102%. The viability, T/C [19] was 83.9%, the viability, T/C [20] was 100% and the viability, T/C [21] was 94.9%. It also gave a viability, T/C [22] of 92.1%, a viability, T/C [23] of 98.6% and a viability, T/C [24] of 106%.
